These results are taken from patent US6333406A, “Gene encoding protein antigens of Plasmodium falciparum and uses therefor” (priority 1994, dated 2001).

Where “and” joins values, the source holds several entries; their conditions need not be identical. Identical values can stand only once.

The target in data set [1] is T1, DHFR^Ser108 (reconstructed P. falciparum DHFR) (Plasmodium falciparum, UniProt P13922, N108S/R59C).
T1 construct: The gene encoding DHFR part of the P. falciparum DHFR-TS complex; made in house; host or cells: E. coli JM103, plasmid pET-PfDHFR^Ser108 (pET-3a), induced with M13-pKM2
Nature of the data set: Inhibition of recombinant DHFR activity, spectrophotometric assay with Dixon plot analysis. The data set is classed as biochemical. The text has this: (§1) The decrease in A340 was monitored by a HITACHI spectrophotometer U-2000. The blank sample consisted of all the reaction components except the enzyme.

The target of data set [2] is SE50A recombinant SERA protein produced in E. coli (Plasmodium falciparum). Nature of the data set: ELISA of control rat serum.
Data set [3] concerns DHFR^Thr108 (reconstructed P. falciparum DHFR). As to conditions: Dixon plots for DHFR^Thr108 and DHFR^Ser108 (FIGS. 19A-19F).
From the text: as §1

Data set [4] relates to NC(=O)C1=CN([C@@H]2O[C@H](COP(=O)(O)OP(=O)(O)OC[C@H]3O[C@@H](n4cnc5c(N)ncnc54)[C@H](OP(=O)(O)O)[C@@H]3O)[C@@H](O)[C@H]2O)C=CC1. Nature of the data set: purified protein, by the assay type. The following applies: other: substrate Km, reconstructed P.f. DHFR Thr108 (Table IV); pH 7.6; 37.0 °C.
Data set [5] has as its target SE47' recombinant SERA protein produced in E. coli (Plasmodium falciparum). The data set can be described thus: ELISA of control mouse serum.
The subject of data set [6] is Plasmodium falciparum (FCR3). The data set can be described thus: Plasmodium falciparum growth inhibition with anti-SERA serum. As to conditions: FCR3 culture, serum dilutions, parasitemia after 72 hours (FIGS. 16A-16B). The class given is cell-based. The procedure: FIGS. 16A and 16B show Plasmodium falciparum growth inhibition with anti-SER47' and anti-SE50A serum. […] The inhibition confirms that the new constructs of SERA (FIG. 10, FIG. 11, and FIG. 12) produce immunogenic material and that adjuvant enhances the induction of parasite inhibitory levels of antibodies.
The Plasmodium falciparum cell (FCR3) was grown in an in vitro culture containing 5% red blood cells (RBC). When the parasitized RBC, 96% were trophozoite and schizont, reached 4.4% of total RBC, the culture was diluted to 1% of parasitized cell in total RBC and 2% of RBC in medium. The 100 µl of the diluted culture was incubated in a 96 well dish. The culture media which contains rat or mouse serum at the indicated dilution were changed each 24 hours. Parasitemia was measured by Giemsa staining after 72 hours incubation. The sera used here were from the animal #3 of SE47' and #1 of SE50A, each of whose ELISA titer was described in Table VI.

For a further data set, the system named is SE50A. Nature of the data set: ELISA value of rat sera immunized with recombinant SERA protein SE50A. The data set is classed as in vivo. The following applies: individual rats 1-3; subcutaneous, insoluble form without adjuvant, days 1, 22, 50. The text has this: The SE50A protein was produced in E. coli cells as described for SE47'. The products were obtained as an inclusion body in the precipitate of lysed cells. The precipitate was solubilized with a buffer containing 5M guanidine HCl. After removal of insoluble materials, SE50A protein was precipitated by removing the 5M guanidine HCl again. These processes were repeated 3 times. The final precipitate contained SE50A at more than 80% purity. Three rats were immunized by subcutaneous injection of the insoluble form of SE50A without adjuvant three times on days 1, 22, and 50.

The subject of the next data set is SERA protein. The data set can be described thus: Immunoblot of whole cellular proteins of Plasmodium falciparum FCR3 strain with antiserum against SE47' or SE50A. The data set is classed as binding. The following applies: mouse anti-SE47' serum, rat anti-SE50A serum. As to the method:
The antisera used for the immunoblot were as follows: lane 1, control mouse serum; lane 2, mouse anti-SF47' serum; lane 3, control rat serum; lane 4, rat anti-SE50A serum. The arrow indicates the molecular weight corresponding to SERA protein.
Parasite cells were isolated by saponin lysis of the in vitro culture. The prepared cells were analyzed by immunoblotting using SDS-polyacrylamide gel electrophoresis (12.5%). The antisera used for the immunoblot (FIG. 15) were as follows: lane 1, control mouse serum; lane 2, mouse #3 anti-SE47' serum; lane 3, control rat serum; lane 4, rat #1 anti-SE50A serum. The arrow indicates the molecular weight corresponding to SERA protein.

Where [7] appears, read: substrate Km of DHFR^Ser108, as stated in text.
Where [8] appears, read: substrate Km, reconstructed P.f. DHFR Ser108 (Table IV).

`Nc1nc2c(c(=O)[nH]1)N=C(CNc1ccc(C(=O)N[C@@H](CCC(=O)O)C(=O)O)cc1)CN2` [DHF]: the Michaelis constant (Km) was determined as 67 µM in data set [1] (setting [7]) and 66.6 ± 2.6 µM in data set [1] (setting [8]).

As for “control rat serum (polyclonal serum or antibody)”, the ELISA Titer in data set [2] was under 50.

Take `NC(=O)C1=CN([C@@H]2O[C@H](COP(=O)(O)OP(=O)(O)OC[C@H]3O[C@@H](n4cnc5c(N)ncnc54)[C@H](OP(=O)(O)O)[C@@H]3O)[C@@H](O)[C@H]2O)C=CC1` [NADPH]: the Km was found to be 90 µM in data set [1] (setting [7]) and 90.2 ± 4.3 µM in data set [1] (setting [8]).

`CCc1nc(N)nc(N)c1-c1ccc(Cl)cc1` [pyrimethamine]: the “manner of enzyme inhibition” value in data set [3] is “competitive”.

As for “DHFR^Thr108 (reconstructed P. falciparum DHFR) (Plasmodium falciparum K1; N108T/R59C)”, the Km in data set [4] was 19.2 ± 0.4 µM.

As for “control mouse serum (polyclonal serum or antibody)”, in data set [5], the ELISA Titer was under 200.

In the case of `CN(Cc1cnc2nc(N)nc(N)c2n1)c1ccc(C(=O)N[C@@H](CCC(=O)O)C(=O)O)cc1` [methotrexate], in data set [3], the “manner of enzyme inhibition” value is “competitive”.

B1: SE50A: recombinant portion of the 50 kd processed SERA protein, SEQ ID NO: 17, produced in E. coli as inclusion body (protein)
chain: MKDENNCISNLQVEDQGNCDTSWIFASKYHLETIRCMKGYEPTKISALYVANCYKGEHKDRCDEGSSPMEFLQIIEDYGFLPAESNYPYNYVKVGEQCPKVEDHWMNLWDNGKILHNKNEPNSLDGKGYTAYESERFHDNMDAFVKIIKTEVMNKGSVIAYIKAENVMGYEFSGKKVQNLCGDDTADHAVNIVGYGNYVNSEGEKKSYWIVRNSWGPYWGDEGYFKVDMYGPTHCHIEF
Turning to B1, in data set [6], the “parasite growth inhibition by antiserum raised against the protein” value is recorded as “indistinguishable from control serum except at the lowest dilution”. The “ELISA Titer” value with SE50A was 10,000 and 8,330. Besides, the “recognition of SERA protein by antiserum in immunoblot” value with SERA protein is recorded as “recognize the complete SERA protein”.
